Laboratory results taken from PMC7782793, “Hydroxamic acid-modified peptide microarrays for profiling isozyme-selective interactions and inhibition of histone deacetylases” (Nature Communications, 2021).
Where “and” joins values, the source holds several entries; their conditions need not be identical. Equal values may be shown once. Marks after values point to notes of the source that are not given here. Non-standard residues stand in square brackets, D forms with d. Residues, ends and D or L forms follow the SMILES beside them. *: point of attachment. Asu = N[C@@H](CCCCCC(=O)O)C(=O)O; NHOH = ON*

Experiments:
[1] = biological target: T1, HDAC1 (Homo sapiens, UniProt Q13547); assay: HDAC inhibition assay (fluorogenic, Ac-Leu-Gly-Lys(Ac)-AMC); assay type: biochemical; conditions: for HDAC1 dose-response data (relative enzyme activity), Fig. 6 + S. Fig. 10: duplicate columns
T1 construct: HDAC1 (full length, C-terminal His tag, C-terminal FLAG tag, BPS Bioscience, cat. #: 50051); FLAG (C); purchased BPS Bioscience 50051

[2] = biological target: T2, HDAC8 (Homo sapiens, UniProt Q9BY41); assay: HDAC inhibition assay (fluorogenic, Ac-Leu-Gly-Lys(Tfa)-AMC); assay type: biochemical; conditions: for HDAC8 dose-response data (relative enzyme activity, replicate values), Fig. 6 + S. Fig. 10: two replicate columns per inhibitor; for HDAC8 dose-response data (relative enzyme activity), Fig. 6 + S. Fig. 10: duplicate columns
T2 construct: HDAC8 (full length, C-terminal His tag, BPS Bioscience, cat. #: 50008); purchased BPS Bioscience 50008
T2 sequence (Q9BY41 1-377): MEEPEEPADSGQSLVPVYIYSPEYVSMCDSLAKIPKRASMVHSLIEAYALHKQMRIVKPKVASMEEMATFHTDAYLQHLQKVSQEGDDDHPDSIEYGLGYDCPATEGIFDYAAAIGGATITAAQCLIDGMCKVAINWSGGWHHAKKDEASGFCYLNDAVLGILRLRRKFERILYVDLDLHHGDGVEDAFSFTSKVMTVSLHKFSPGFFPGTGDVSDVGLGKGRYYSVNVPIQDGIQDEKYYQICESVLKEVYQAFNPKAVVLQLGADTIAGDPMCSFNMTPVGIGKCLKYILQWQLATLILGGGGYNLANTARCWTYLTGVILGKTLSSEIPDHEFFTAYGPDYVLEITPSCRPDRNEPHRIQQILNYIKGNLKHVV

[3] = biological target: T3, HDAC6 (Homo sapiens, UniProt Q9UBN7); assay: HDAC inhibition assay (fluorogenic, Ac-Leu-Gly-Lys(Ac)-AMC); assay type: biochemical; conditions: HDAC6, replicates
T3 construct: HDAC6 (full length, BPS Bioscience, cat. #: 50056); purchased BPS Bioscience 50056
T3 sequence (Q9UBN7 1-1215): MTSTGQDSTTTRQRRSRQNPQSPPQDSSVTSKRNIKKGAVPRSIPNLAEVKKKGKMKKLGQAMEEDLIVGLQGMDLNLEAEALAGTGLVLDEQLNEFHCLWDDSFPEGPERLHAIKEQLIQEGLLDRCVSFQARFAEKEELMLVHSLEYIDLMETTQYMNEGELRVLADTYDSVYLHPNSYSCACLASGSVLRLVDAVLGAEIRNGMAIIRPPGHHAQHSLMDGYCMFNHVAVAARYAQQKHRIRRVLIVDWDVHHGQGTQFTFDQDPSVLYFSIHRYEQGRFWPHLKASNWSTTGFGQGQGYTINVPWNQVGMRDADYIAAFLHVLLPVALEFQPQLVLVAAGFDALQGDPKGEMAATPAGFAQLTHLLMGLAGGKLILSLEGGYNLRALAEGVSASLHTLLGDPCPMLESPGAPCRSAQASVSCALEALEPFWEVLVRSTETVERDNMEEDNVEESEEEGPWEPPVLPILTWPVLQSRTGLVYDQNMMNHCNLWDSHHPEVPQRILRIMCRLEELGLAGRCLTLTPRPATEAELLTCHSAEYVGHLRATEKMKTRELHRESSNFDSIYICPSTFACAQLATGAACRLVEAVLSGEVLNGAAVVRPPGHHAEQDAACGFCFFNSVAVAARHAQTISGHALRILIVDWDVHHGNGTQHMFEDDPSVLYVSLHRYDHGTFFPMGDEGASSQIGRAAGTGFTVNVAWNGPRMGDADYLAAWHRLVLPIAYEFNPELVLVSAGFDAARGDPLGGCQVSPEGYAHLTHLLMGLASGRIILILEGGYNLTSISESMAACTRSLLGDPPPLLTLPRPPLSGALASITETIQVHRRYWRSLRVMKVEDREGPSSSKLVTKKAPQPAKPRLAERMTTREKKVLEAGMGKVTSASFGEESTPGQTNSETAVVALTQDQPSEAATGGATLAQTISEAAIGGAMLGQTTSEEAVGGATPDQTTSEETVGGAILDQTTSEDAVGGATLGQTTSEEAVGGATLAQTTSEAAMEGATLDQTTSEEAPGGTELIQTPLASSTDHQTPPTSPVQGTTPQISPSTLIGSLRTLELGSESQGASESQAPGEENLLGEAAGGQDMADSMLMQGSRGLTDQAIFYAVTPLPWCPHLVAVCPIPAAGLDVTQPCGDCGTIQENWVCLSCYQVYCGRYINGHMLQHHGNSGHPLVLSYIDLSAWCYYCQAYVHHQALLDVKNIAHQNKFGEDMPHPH

[4] = biological target: T4, HDAC4 (Homo sapiens, UniProt P56524); assay: HDAC inhibition assay (fluorogenic, Ac-Leu-Gly-Lys(Tfa)-AMC); assay type: biochemical; conditions: 2 internal replicates
T4 construct: purchased BPS Bioscience 50004

[5] = biological target: T5, HDAC3/NCoR2 (Homo sapiens, UniProt O15379); assay: HDAC inhibition assay (fluorogenic, Ac-Leu-Gly-Lys(Ac)-AMC); assay type: biochemical; conditions: for HDAC3 dose-response data (relative enzyme activity), Fig. 6 + S. Fig. 10: duplicate columns
T5 construct: HDAC3/NCoR2 (full length, C-terminal His tag, NCoR2 N-terminal GST tag); purchased BPS Bioscience 50003

[6] = biological target: T1, HDAC1; assay: Recombinant HDAC µSPOT microarray binding assay
[7] = tested on: HDACs 1‒3 and 8; assay: HDAC inhibition assays, statements across several class I isozymes; assay type: biochemical, human; conditions: resynthesized peptides, from Ki
[8] = biological target: T5, HDAC3/NCoR2; assay: Recombinant HDAC µSPOT microarray binding assay
Procedure: Experiments were performed twice, data were obtained with Array Analyze software (Active Motif), and data analysis and representation were performed with the GraphPad Prism 7 software. Outliers were curated manually and data were fitted to nonlinear regression [log(agonist) vs. response—variable slope (four parameters)]. […] Non-sigmoidal curves were denoted as not determined (N.D.) The pEC50 values were determined as the concentration of HDAC enzyme required for half-maximal binding signal.

[9] = biological target: T2, HDAC8; assay: Recombinant HDAC µSPOT microarray binding assay
[10] = log[inhibitor(M)] -10,5850266520292*, whole line marked with asterisks

T4 sequence (P56524 627-1084): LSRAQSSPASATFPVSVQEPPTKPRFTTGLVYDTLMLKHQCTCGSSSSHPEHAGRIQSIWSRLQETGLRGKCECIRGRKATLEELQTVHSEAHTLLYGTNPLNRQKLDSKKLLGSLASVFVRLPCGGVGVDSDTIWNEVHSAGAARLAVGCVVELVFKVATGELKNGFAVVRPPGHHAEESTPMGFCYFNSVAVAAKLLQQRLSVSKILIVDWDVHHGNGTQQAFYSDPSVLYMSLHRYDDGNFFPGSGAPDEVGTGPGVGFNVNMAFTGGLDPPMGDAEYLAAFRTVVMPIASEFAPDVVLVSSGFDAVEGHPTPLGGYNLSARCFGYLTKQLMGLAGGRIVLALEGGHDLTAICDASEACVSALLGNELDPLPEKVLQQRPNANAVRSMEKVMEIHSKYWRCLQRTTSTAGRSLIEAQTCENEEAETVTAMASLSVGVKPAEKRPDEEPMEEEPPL
T5 sequence (O15379 whole entry): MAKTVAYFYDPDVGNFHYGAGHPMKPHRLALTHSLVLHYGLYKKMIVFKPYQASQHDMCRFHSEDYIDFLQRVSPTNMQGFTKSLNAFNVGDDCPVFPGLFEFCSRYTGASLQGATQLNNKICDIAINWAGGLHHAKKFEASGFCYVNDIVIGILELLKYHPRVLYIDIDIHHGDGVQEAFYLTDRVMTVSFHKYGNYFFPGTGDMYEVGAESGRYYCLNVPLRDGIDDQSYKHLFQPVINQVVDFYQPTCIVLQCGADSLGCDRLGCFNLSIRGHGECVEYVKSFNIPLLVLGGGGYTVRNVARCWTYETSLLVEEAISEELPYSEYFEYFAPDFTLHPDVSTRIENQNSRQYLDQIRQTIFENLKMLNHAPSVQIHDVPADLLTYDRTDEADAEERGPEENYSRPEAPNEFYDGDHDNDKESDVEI
T5 sequence (Q9Y618 389-480 partner limits assumed): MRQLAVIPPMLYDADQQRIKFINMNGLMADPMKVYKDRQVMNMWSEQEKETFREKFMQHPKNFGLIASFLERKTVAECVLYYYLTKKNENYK
T1 sequence (Q13547 whole entry): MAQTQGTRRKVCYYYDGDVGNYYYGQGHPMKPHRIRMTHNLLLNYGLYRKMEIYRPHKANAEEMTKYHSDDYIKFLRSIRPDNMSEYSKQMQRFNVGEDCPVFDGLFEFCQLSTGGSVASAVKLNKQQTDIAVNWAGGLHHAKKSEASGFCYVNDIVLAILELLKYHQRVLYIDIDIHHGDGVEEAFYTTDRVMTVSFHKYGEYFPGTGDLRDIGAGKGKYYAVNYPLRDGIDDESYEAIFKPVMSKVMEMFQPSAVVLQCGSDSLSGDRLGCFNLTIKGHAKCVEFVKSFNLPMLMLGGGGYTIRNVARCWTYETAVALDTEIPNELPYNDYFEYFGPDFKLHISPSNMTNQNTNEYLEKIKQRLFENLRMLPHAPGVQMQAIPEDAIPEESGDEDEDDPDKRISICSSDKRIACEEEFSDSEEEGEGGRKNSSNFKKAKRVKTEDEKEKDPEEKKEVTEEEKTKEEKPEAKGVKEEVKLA

CC(=O)NCC(=O)NCC(=O)N[C@@H](CCCCCC(=O)NO)C(=O)N[C@@H](C)C(=O)N[C@@H](CCCNC(=N)N)C(=O)N[C@@H](C)C(=O)N[C@@H](CCCCN)C(=O)N[C@@H](C)C(=O)N[C@@H](CCCCN)C(=O)N[C@H](C(=O)N[C@@H](CCCNC(=N)N)C(=O)N[C@@H](CO)C(=O)N[C@@H](CO)C(=O)N[C@@H](CCCNC(=N)N)C(=O)N[C@@H](C)C(=O)NCC(=O)N[C@@H](Cc1c[nH]c2ccccc12)C(N)=O)[C@@H](C)O [9a] (Ac-GG[Asu](NHOH)ARAKAKTRSSRAGW-NH2)
Ki [1]: 31.1 ± 0.2 nM
HDAC1 dose-response data (relative enzyme activity), Fig. 6 + S. Fig. 10 ([1]; log[inhibitor(M)] -5.69897): 7.627 and 13.3733
HDAC1 dose-response data (relative enzyme activity), Fig. 6 + S. Fig. 10 ([1]; log[inhibitor(M)] -6.39794): 29.353 and 31.2435
HDAC1 dose-response data (relative enzyme activity), Fig. 6 + S. Fig. 10 ([1]; log[inhibitor(M)] -7.09691): 58.5172 and 64.5613
HDAC1 dose-response data (relative enzyme activity), Fig. 6 + S. Fig. 10 ([1]; log[inhibitor(M)] -7.79588): 95.7003 and 88.0669
HDAC1 dose-response data (relative enzyme activity), Fig. 6 + S. Fig. 10 ([1]; log[inhibitor(M)] -8.49485): 105.543 and 108.963
HDAC1 dose-response data (relative enzyme activity), Fig. 6 + S. Fig. 10 ([1]; log[inhibitor(M)] -9.19382): 98.3062 and 98.503
HDAC1 dose-response data (relative enzyme activity), Fig. 6 + S. Fig. 10 ([1]; log[inhibitor(M)] -9.89279): 101.14 and 97.4578
HDAC1 dose-response data (relative enzyme activity), Fig. 6 + S. Fig. 10 [1, 10]: 103,131* and 101,221*
Ki [2]: 5570 ± 130 nM
HDAC8 dose-response data (relative enzyme activity, replicate values), Fig. 6 + S. Fig. 10 ([2]; Inhibitor conc [M] -8.49485 (log)): 101.387 and 98.0647
HDAC8 dose-response data (relative enzyme activity, replicate values), Fig. 6 + S. Fig. 10 ([2]; Inhibitor conc [M] -9.19382 (log)): 105.308 and 102.184
HDAC8 dose-response data (relative enzyme activity, replicate values), Fig. 6 + S. Fig. 10 ([2]; Inhibitor conc [M] given as -7.09691 (log)): 100.377 and 94.2492
HDAC8 dose-response data (relative enzyme activity, replicate values), Fig. 6 + S. Fig. 10 ([2]; Inhibitor conc [M] given as -7.79588 (log)): 101.512 and 95.1709
HDAC8 dose-response data (relative enzyme activity, replicate values), Fig. 6 + S. Fig. 10 ([2]; Inhibitor conc [M] given as -9.89279 (log)): 102.446 and 100.014
HDAC8 dose-response data (relative enzyme activity, replicate values), Fig. 6 + S. Fig. 10 ([2]; Inhibitor conc [M] given as -10.585 (log)): 102,003* and 99,4628*
HDAC8 dose-response data (relative enzyme activity), Fig. 6 + S. Fig. 10 ([2]; Inhibitor conc [M] -4.30103): 8.643 and 13.2074
HDAC8 dose-response data (relative enzyme activity), Fig. 6 + S. Fig. 10 ([2]; Inhibitor conc [M] -5): 41.9349 and 42.6215
HDAC8 dose-response data (relative enzyme activity), Fig. 6 + S. Fig. 10 ([2]; Inhibitor conc [M] -5.69897): 76.1615 and 76.0658
HDAC8 dose-response data (relative enzyme activity), Fig. 6 + S. Fig. 10 ([2]; Inhibitor conc [M] -6.39794): 95.4429 and 93.9691
residual enzymatic activity relative to control wells ([3]; log[inhibitor(M)] -4.30103): 0.99 and 1.47
residual enzymatic activity relative to control wells ([3]; log[inhibitor(M)] -5): 0.54 and 1.15
residual enzymatic activity relative to control wells ([3]; log[inhibitor(M)] -5.69897): 2.15 and 1.92
residual enzymatic activity relative to control wells ([3]; log[inhibitor(M)] -6.39794): 7.05 and 5.56
residual enzymatic activity relative to control wells ([3]; log[inhibitor(M)] -7.09691): 24.41 and 17.7
residual enzymatic activity relative to control wells ([3]; log[inhibitor(M)] -7.79588): 54.41 and 42.53
residual enzymatic activity relative to control wells ([3]; log[inhibitor(M)] -8.49485): 80.22 and 64.16
residual enzymatic activity relative to control wells ([3]; log[inhibitor(M)] -9.19382): 93.97 and 80.87
residual enzymatic activity relative to control wells ([3]; log[inhibitor(M)] -9.89279): 97.61 and 89.51
residual enzymatic activity relative to control wells ([3]; log[inhibitor(M)] -10.585): 98,6* and 92,44*
residual enzymatic activity relative to control wells ([4]; inhibitor 5 µM): 94.96
remaining activity at 5 µM ([4]; inhibitor 5 µM, read-out: residual enzymatic activity relative to control wells): 97.8%
residual enzymatic activity relative to control wells ([4]; inhibitor 50 µM): 54.4
remaining activity at 50 µM ([4]; inhibitor 50 µM, read-out: residual enzymatic activity relative to control wells): 57.5%
Ki [5]: 7.66 ± 0.07 nM
HDAC3 dose-response data (relative enzyme activity), Fig. 6 + S. Fig. 10 ([5]; log[inhibitor(M)] -4.30103): 0.3821 and 0.6391
HDAC3 dose-response data (relative enzyme activity), Fig. 6 + S. Fig. 10 ([5]; log[inhibitor(M)] -5): 2.293 and 2.409
HDAC3 dose-response data (relative enzyme activity), Fig. 6 + S. Fig. 10 ([5]; log[inhibitor(M)] -5.69897): 8.406 and 7.571
HDAC3 dose-response data (relative enzyme activity), Fig. 6 + S. Fig. 10 ([5]; log[inhibitor(M)] -6.39794): 24.6725 and 18.9774
HDAC3 dose-response data (relative enzyme activity), Fig. 6 + S. Fig. 10 ([5]; log[inhibitor(M)] -7.09691): 37.2271 and 35.3982
HDAC3 dose-response data (relative enzyme activity), Fig. 6 + S. Fig. 10 ([5]; log[inhibitor(M)] -7.79588): 64.8472 and 61.8977
HDAC3 dose-response data (relative enzyme activity), Fig. 6 + S. Fig. 10 ([5]; log[inhibitor(M)] -8.49485): 94.5961 and 96.0669
HDAC3 dose-response data (relative enzyme activity), Fig. 6 + S. Fig. 10 ([5]; log[inhibitor(M)] -9.19382): 98.4716 and 100.59
HDAC3 dose-response data (relative enzyme activity), Fig. 6 + S. Fig. 10 ([5]; log[inhibitor(M)] -9.89279): 99.7271 and 104.621
HDAC3 dose-response data (relative enzyme activity), Fig. 6 + S. Fig. 10 [5, 10]: 100,6* and 100,492*
EC50 [6]: > 25.1 nM
selectivity against HDACs 1‒3 versus HDAC8 [7]: over 100 fold
EC50 [8]: 6.03 nM
EC50 [9]: > 25.1 nM
